US9856511B2, “Protease deubiquitinating inhibitor screening” (priority 2011, dated 2018)

Test system: C1498 AML cells
Test: C1498 AML model in C57BL/6J mice, histopathology of liver and ovary
Type: in vivo
Settings: 5 mg/kg i.p. for 7 days
Procedure: Animal experiments were conducted in full accordance with Swedish governmental statutory regulations on animal welfare under permission from local ethical committees. Animals were housed at a max of five per cage and provided with sterile water and food ad libitum. All mice were monitored and weighed daily. For the head and neck carcinoma model a 100-μl cell suspension containing 1×10^6 FaDu cells was injected subcutaneously into the right rear flank of the animals. After injection, tumor growth was measured daily with calipers and the tumor volume calculated by the formula […]. When tumors had grown to a size of approximately 200 mm^3 (Day 0) mice were randomized to receive either vehicle (n=10) or b-AP15 5 mg/kg^−1 by subcutaneous injection s.c. (n=15) daily. […] Nineteen days after malignant cell injection all of the mice were killed and histopathological manifestations of liver, ovary (target organs for this model of tumor) were evaluated and compared between groups. […]
SCID mice bearing FaDu human tumor xenografts were randomized at tumor take (200 mm^3) and treated by daily subcutaneous injection with either vehicle (n=10) or 5 mg kg^−1 b-AP15 (n=15) for 10 days. […] Mice were treated with vehicle (n=6) or 5 mg kg^−1 b-AP15 (n=6) 4-5 times weekly for 3 weeks and monitored for tumor onset (log-rank, P=0.0136, hazard ratio=7.9). […]

## C=CC(=O)N1C/C(=C\c2ccc([N+](=O)[O-])cc2)C(=O)/C(=C/c2ccc([N+](=O)[O-])cc2)C1 [b-AP15]
  AML infiltration in liver and ovary: few infiltrated blasts and normal morphology
